The values that follow come from US9801960B2, “Probe for a biological specimen and labelling method and screening method using the probe” (CANON KABUSHIKI KAISHA, priority 2008, dated 2017).

The first series deals with Zebrafish juveniles. In words: In vivo labelling of Zebrafish juveniles with probe for biological specimen. The settings on record: 10 ng/mL in water, 1 hour, stereoscopic microscope. More on the design: key to Staining property: +++: stained; −: no stained; key to Fluorescence sensitivity: +++: strongly observed; ++: moderately observed; +: weakly observed; −: no stained. Here is the method: Five juveniles of Zebrafish were put into one well of a well plate together with rearing water. After rearing water had been discharged, 1 mL of distilled water was added to the well, and a solution of a staining compound (1) in DMSO was further added thereto so as to achieve a concentration of 10 ng/mL, followed by gentle stirring (pipetting). Further, Egg Water was prepared by dissolving artificial seawater SEALIFE (manufactured by Marinetech Co., Ltd.) in distilled water at a concentration of 60 mg/L. After the whole had been left to stand for 1 hour, distilled water in the well was discharged and replaced by 1 mL of fresh Egg Water. In addition, such an operation that Egg Water was discharged and replaced by 1 mL of fresh Egg Water was repeated twice. One of the juveniles was taken out from the well onto a dish, supplemented with 100 μL of a 3% methylcellulose aqueous solution to fix the movement of the juvenile, and photographed with a stereoscopic microscope (MZ10F: manufactured by Leica Microsystems K.K.).
The same operation as that in Example 1 was performed except that the staining compound (1) used in Example 1 was changed to any one of the staining compounds described in Table 1.
The same operation as that in Example 1 was performed except that the staining compound (1) used in Example 1 was changed to any one of indocyanine green (ICG) and fluorescein.
The staining property of each of the staining compounds of Labelled Examples 1 to 78 and Labelled Comparative Examples 1 and 2 was visually evaluated (+++: stained and −: no stained).
The fluorescence intensity of each of the staining compounds of Labelled Examples 1 to 78 and Labelled Comparative Examples 1 and 2 was visually evaluated (+++: strongly observed, ++: moderately observed, +: weakly observed, and −: no stained).
Regarding `O=C(O)CN1C(=O)/C(=C\c2ccc3c(c2)C2CCCC2N3c2ccccc2)SC1=S` (stereo not shown) [Dye 1], the “Site(s) to be labelled” value is “blood vessel, gallbladder, and gastrointestinal”.
Still for that read-out and setting: the result for `O=C(O)CN1C(=O)/C(=C\c2cc(Br)c3c(c2)C2CCCC2N3c2ccc(Br)cc2)SC1=S` (stereo not shown) [Dye 2] reads “blood vessel, liver, and gastrointestinal tract”; that for `O=C(O)CN1C(=O)/C(=C\c2ccc3c(c2)C2CCCC2N3Cc2ccccc2)SC1=S` (stereo not shown) [Dye 3], “blood vessel, gallbladder, and gastrointestinal”; that for `N#C/C(=C\c1ccc2c(c1)C1CCCC1N2Cc1ccccc1)C(=O)O` (stereo not shown) [Dye 5], “liver, gallbladder, and gastrointestinal tract”.
On the same count and under the same terms, the result for `N#C/C(=C\c1ccc2c(c1)C1CCCC1N2c1ccc(C=C(c2ccccc2)c2ccccc2)cc1)C(=O)O` (stereo not shown) [Dye 7] reads “blood vessel and liver”.
On the same count and under the same terms, the entry for `O=C(O)Cn1c(=O)/c(=C\c2ccc3c(c2)C2CCCC2N3Cc2ccccc2)s/c1=C1/SC(=S)N(Cc2ccccc2)C1=O` (stereo not shown) [Dye 11] is “blood vessel, liver, and gastrointestinal tract”; for `N#C/C(=C\c1ccc2c(c1)C1CCCC1N2c1ccccc1)C(=O)O` (stereo not shown) [Dye 13] it is “liver and gastrointestinal tract”.

Still in this series, the particulars now being: 10 ng/mL, 1 hour, fluorescence intensity visually evaluated.
With `O=C(O)CN1C(=O)/C(=C\c2ccc3c(c2)C2CCCC2N3c2ccccc2)SC1=S` (stereo not shown) [Dye 1], the Fluorescence sensitivity entry is “+++”.
On to `O=C(O)CN1C(=O)/C(=C\c2cc(Br)c3c(c2)C2CCCC2N3c2ccc(Br)cc2)SC1=S` (stereo not shown) [Dye 2], for which the Fluorescence sensitivity result is “+++”.
Same read-out and setting: the entry for `O=C(O)CN1C(=O)/C(=C\c2ccc3c(c2)C2CCCC2N3Cc2ccccc2)SC1=S` (stereo not shown) [Dye 3] is “+++”; for `N#C/C(=C\c1ccc2c(c1)C1CCCC1N2Cc1ccccc1)C(=O)O` (stereo not shown) [Dye 5] it is “++”.
On the same count and under the same terms, the entry for `N#C/C(=C\c1ccc2c(c1)C1CCCC1N2c1ccc(C=C(c2ccccc2)c2ccccc2)cc1)C(=O)O` (stereo not shown) [Dye 7] is “+++”.
On to `O=C(O)Cn1c(=O)/c(=C\c2ccc3c(c2)C2CCCC2N3Cc2ccccc2)s/c1=C1/SC(=S)N(Cc2ccccc2)C1=O` (stereo not shown) [Dye 11], for which the Fluorescence sensitivity result is recorded as “++”.
As to `N#C/C(=C\c1ccc2c(c1)C1CCCC1N2c1ccccc1)C(=O)O` (stereo not shown) [Dye 13], the Fluorescence sensitivity result is recorded as “++”.

Staying with this series, now noted: 10 ng/mL, 1 hour, visually evaluated.
For `O=C(O)CN1C(=O)/C(=C\c2ccc3c(c2)C2CCCC2N3c2ccccc2)SC1=S` (stereo not shown) [Dye 1], the Staining property entry is on record as “+++”.
With `O=C(O)CN1C(=O)/C(=C\c2cc(Br)c3c(c2)C2CCCC2N3c2ccc(Br)cc2)SC1=S` (stereo not shown) [Dye 2], the Staining property entry was “+++”.
On the same count and under the same terms, the entry for `O=C(O)CN1C(=O)/C(=C\c2ccc3c(c2)C2CCCC2N3Cc2ccccc2)SC1=S` (stereo not shown) [Dye 3] is “+++”; for `N#C/C(=C\c1ccc2c(c1)C1CCCC1N2Cc1ccccc1)C(=O)O` (stereo not shown) [Dye 5] it is “+++”.
Still for that read-out and setting: the entry for `N#C/C(=C\c1ccc2c(c1)C1CCCC1N2c1ccc(C=C(c2ccccc2)c2ccccc2)cc1)C(=O)O` (stereo not shown) [Dye 7] is “+++”; for `O=C(O)Cn1c(=O)/c(=C\c2ccc3c(c2)C2CCCC2N3Cc2ccccc2)s/c1=C1/SC(=S)N(Cc2ccccc2)C1=O` (stereo not shown) [Dye 11] it is “+++”.
Consider `N#C/C(=C\c1ccc2c(c1)C1CCCC1N2c1ccccc1)C(=O)O` (stereo not shown) [Dye 13], for which the Staining property result was “+++”.

Tested on in a further series: not listed separately
The experiment in a line: Storage stability of staining compound solution in DMSO. It counts as physicochemical. The conditions noted are these: 10 ng/mL in DMSO, closed glass container, normal temperature, 1 month; rate of change of absorbance and fluorescence intensity. Here is the method:
A 10 ng/mL solution of each of the staining compounds of Labelled Examples 1 to 78 and Labelled Comparative Examples 1 and 2 in DMSO was prepared, charged into a well-closed container made of glass, and left to stand still at normal temperature for 1 month. The absorbance and the fluorescence intensity at the time of the start of a storage stability test were measured at a given wavelength, and their rates of change were examined (+++: rates of change of the absorbance and the fluorescence intensity are less than 5%, and thus, the storage stability is highly excellent; ++: rates of change of the absorbance and fluorescence intensity are 5 to 15%, and thus, the storage stability is excellent; and −: rates of change of the absorbance and fluorescence intensity are more than 15%, and thus, the storage stability is poor).
For the compound `O=C(O)CN1C(=O)/C(=C\c2ccc3c(c2)C2CCCC2N3c2ccccc2)SC1=S` (stereo not shown) [Dye 1], the Storage stability result is “+++ (rates of change of the absorbance and the fluorescence intensity are less than 5%, and thus, the storage stability is highly excellent)”.
For `O=C(O)CN1C(=O)/C(=C\c2cc(Br)c3c(c2)C2CCCC2N3c2ccc(Br)cc2)SC1=S` (stereo not shown) [Dye 2], the Storage stability entry was “+++ (rates of change of the absorbance and the fluorescence intensity are less than 5%, and thus, the storage stability is highly excellent)”.
For `O=C(O)CN1C(=O)/C(=C\c2ccc3c(c2)C2CCCC2N3Cc2ccccc2)SC1=S` (stereo not shown) [Dye 3], the Storage stability entry is “+++ (rates of change of the absorbance and the fluorescence intensity are less than 5%, and thus, the storage stability is highly excellent)”.
The same measure, in the same setting: the result for `N#C/C(=C\c1ccc2c(c1)C1CCCC1N2Cc1ccccc1)C(=O)O` (stereo not shown) [Dye 5] reads “+++ (rates of change of the absorbance and the fluorescence intensity are less than 5%, and thus, the storage stability is highly excellent)”; that for `N#C/C(=C\c1ccc2c(c1)C1CCCC1N2c1ccc(C=C(c2ccccc2)c2ccccc2)cc1)C(=O)O` (stereo not shown) [Dye 7], “+++ (rates of change of the absorbance and the fluorescence intensity are less than 5%, and thus, the storage stability is highly excellent)”; that for `O=C(O)Cn1c(=O)/c(=C\c2ccc3c(c2)C2CCCC2N3Cc2ccccc2)s/c1=C1/SC(=S)N(Cc2ccccc2)C1=O` (stereo not shown) [Dye 11], “+++ (rates of change of the absorbance and the fluorescence intensity are less than 5%, and thus, the storage stability is highly excellent)”.
Same read-out and setting: the result for `N#C/C(=C\c1ccc2c(c1)C1CCCC1N2c1ccccc1)C(=O)O` (stereo not shown) [Dye 13] reads “+++ (rates of change of the absorbance and the fluorescence intensity are less than 5%, and thus, the storage stability is highly excellent)”.

Tested on in the next series: not listed separately
The experiment in a line: Excitation and fluorescence emission wavelength measurement. It counts as physicochemical. More on the design: Stokes shift (λem − λex): unit not given here. The settings on record: aqueous solution: 10 mg/mL solution in DMSO diluted 500-fold with purified water. Here is the method: It should be noted that the excitation wavelength and the fluorescence emission wavelength of the staining compound were determined by measuring an aqueous solution, which had been obtained by diluting 500-fold a 10 mg/mL solution of the staining compound in DMSO with purified water, with a fluorescence spectrophotometer FL 4500 manufactured by Hitachi High-Technologies Corporation.
Consider `O=C(O)CN1C(=O)/C(=C\c2ccc3c(c2)C2CCCC2N3c2ccccc2)SC1=S` (stereo not shown) [Dye 1], for which the Excitation wavelength λex turned out to be 531 nm, the Fluorescence emission wavelength λem is 633 nm and the “Stokes shift (λem − λex)” value was 102.
`O=C(O)CN1C(=O)/C(=C\c2cc(Br)c3c(c2)C2CCCC2N3c2ccc(Br)cc2)SC1=S` (stereo not shown) [Dye 2]: the Excitation wavelength λex stood at 482 nm, the Fluorescence emission wavelength λem stood at 609 nm and the “Stokes shift (λem − λex)” value worked out at 127.
With `O=C(O)CN1C(=O)/C(=C\c2ccc3c(c2)C2CCCC2N3Cc2ccccc2)SC1=S` (stereo not shown) [Dye 3], the Excitation wavelength λex came out at 525 nm, the Fluorescence emission wavelength λem is 607 nm and the “Stokes shift (λem − λex)” value is recorded as 82.
For `N#C/C(=C\c1ccc2c(c1)C1CCCC1N2Cc1ccccc1)C(=O)O` (stereo not shown) [Dye 5], in that order: 482 nm, 580 nm and 98.
For `N#C/C(=C\c1ccc2c(c1)C1CCCC1N2c1ccc(C=C(c2ccccc2)c2ccccc2)cc1)C(=O)O` (stereo not shown) [Dye 7], in that order: 498 nm, 601 nm and 103.
For `O=C(O)Cn1c(=O)/c(=C\c2ccc3c(c2)C2CCCC2N3Cc2ccccc2)s/c1=C1/SC(=S)N(Cc2ccccc2)C1=O` (stereo not shown) [Dye 11], in that order: 588 nm, 668 nm and 80.
With `N#C/C(=C\c1ccc2c(c1)C1CCCC1N2c1ccccc1)C(=O)O` (stereo not shown) [Dye 13], the Excitation wavelength λex was 477 nm, the Fluorescence emission wavelength λem was 567 nm and the “Stokes shift (λem − λex)” value is recorded as 90.
